Measurements as given in patent publication US10266526B2, “Substituted 1,2,3-triazoles as SMYD inhibitors for treating cancer” (EPIZYME, INC., priority 2014, dated 2019).

These compounds were tested against SMYD3 (Homo sapiens (Human), UniProt Q9H7B4) (assay: SMYD3 biochemical assay (SMYD3 enzyme assay on MEKK2 protein substrate, 3H-SAM scintillation proximity assay)). Conditions: Table 1A; average of n = 1 to n = 50; read-out: SMYD3 Biochem IC50.
Outline: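 Detection used scintillation proximity beads to capture ³H-methylated GST-MEKK2 after quench with 100 uM final cold SAM. The reaction was started by SAM/MEKK2 addition after a 30 min RT compound–enzyme preincubation. Enzyme was tag-free full-length human SMYD3 from E. coli, in buffer of 25 mM Tris-Cl pH 8.0, 1 mM TCEP, 0.005% BSG, 0.005% Tween 20.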

Chain of SMYD3 (Q9H7B4 whole entry): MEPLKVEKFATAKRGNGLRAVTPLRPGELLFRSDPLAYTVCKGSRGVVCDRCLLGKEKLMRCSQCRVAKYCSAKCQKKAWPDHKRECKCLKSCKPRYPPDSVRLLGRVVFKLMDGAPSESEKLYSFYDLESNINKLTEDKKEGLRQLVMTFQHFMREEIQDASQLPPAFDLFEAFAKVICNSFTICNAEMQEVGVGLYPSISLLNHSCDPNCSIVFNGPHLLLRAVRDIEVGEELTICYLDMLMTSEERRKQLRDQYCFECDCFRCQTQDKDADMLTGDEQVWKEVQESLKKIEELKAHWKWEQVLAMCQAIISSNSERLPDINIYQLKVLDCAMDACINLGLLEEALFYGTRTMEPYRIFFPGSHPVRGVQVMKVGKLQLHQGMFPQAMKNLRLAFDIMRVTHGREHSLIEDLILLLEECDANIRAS

| IC50 | SMILES |
| --- | --- |
| 25.6 µM | CCc1cnc(C(=O)N[C@H]2CC[C@H](NC(=O)CCN)CC2)s1 [compound 553, N-((1r,4r)-4-(3-aminopropanamido)cyclohexyl)-5-ethylthiazole-2-carboxamide] |

Same assay, conditions: read-out: SMYD3 Biochem IC50

| IC50 | SMILES |
| --- | --- |
| > 100 µM | Cc1cc(C(=O)N[C@H]2CC[C@H](N)CC2)ccn1 [compound 394, N-((1r,4r)-4-aminocyclohexyl)-2-methylisonicotinamide] |
| > 100 µM | NCCC(=O)N[C@H]1CC[C@H](NC(=O)c2ccc(O)nn2)CC1 [compound 270] |
| > 100 µM | Cn1nccc1C(=O)N[C@H]1CC[C@H](NC(=O)CCN)CC1 [compound 414, N-((1r,4r)-4-(3-aminopropanamido)cyclohexyl)-1-methyl-1H-pyrazole-5-carboxamide] |
| > 100 µM | CC(NC(=O)c1ccncc1F)C1CCN(C(=O)[C@H](C)N)CC1 (stereo partly drawn) [compound 267, N-(1-(1-(L-alanyl)piperidin-4-yl)ethyl)-3-fluoroisonicotinamide] |
| > 100 µM | NCCC(=O)N[C@H]1CC[C@H](NC(=O)c2ccc3nonc3c2)CC1 [compound 332, N-((1r,4r)-4-(3-aminopropanamido)cyclohexyl)benzo[c][1,2,5]oxadiazole-5-carboxamide] |
| > 100 µM | NCCC(=O)N[C@H]1CC[C@H](NC(=O)[C@H]2CC[C@H](N)CC2)CC1 [compound 303, (1r,4r)-4-amino-N-((1r,4r)-4-(3-aminopropanamido)cyclohexyl)cyclohexane-1-carboxamide] |
| 15.1 µM | NCCC(=O)N[C@H]1CC[C@H](NC(=O)C2=NNC(=O)CC2)CC1 [compound 481, N-((1r,4r)-4-(3-aminopropanamido)cyclohexyl)-6-oxo-1,4,5,6-tetrahydropyridazine-3-carboxamide] |
| > 100 µM | N[C@H]1CC[C@H](NC(=O)c2c[nH]c3ccccc23)CC1 [compound 360, N-((1r,4r)-4-aminocyclohexyl)-1H-indole-3-carboxamide] |
| > 100 µM | Cn1nc(C(C)(C)C)cc1C(=O)N[C@H]1CC[C@H](N)CC1 [compound 352, N-((1r,4r)-4-aminocyclohexyl)-3-(tert-butyl)-1-methyl-1H-pyrazole-5-carboxamide] |
| > 100 µM | Cc1ccncc1C(=O)N[C@H]1CC[C@H](N)CC1 [compound 339, N-((1r,4r)-4-aminocyclohexyl)-4-methylnicotinamide] |
| > 100 µM | NS(=O)(=O)c1ccc(C(=O)N[C@H]2CC[C@H](N)CC2)cc1 [compound 190, N-((1r,4r)-4-aminocyclohexyl)-4-sulfamoylbenzamide] |
| > 100 µM | N[C@H]1CC[C@H](NC(=O)c2cccc(F)n2)CC1 [compound 389, N-((1r,4r)-4-aminocyclohexyl)-6-fluoropicolinamide] |
| > 100 µM | CC(NC(=O)c1cccc2[nH]ccc12)C1CCN(C(=O)[C@H](C)N)CC1 (stereo partly drawn) [compound 248, N-(1-(1-(L-alanyl)piperidin-4-yl)ethyl)-1H-indole-4-carboxamide] |
| > 50 µM | CC(NC(=O)c1ncccc1O)C1CCN(C(=O)[C@H](C)N)CC1 (stereo partly drawn) [compound 511, N-(1-(1-(L-alanyl)piperidin-4-yl)ethyl)-3-hydroxypicolinamide] |
| > 100 µM | N[C@H]1CC[C@H](NC(=O)c2cccc3c2CC(=O)N3)CC1 [compound 400, N-((1r,4r)-4-aminocyclohexyl)-2-oxoindoline-4-carboxamide] |
| > 100 µM | COc1ccc2cc(C(=O)N[C@H]3CC[C@H](N)CC3)ccc2c1 [compound 276, N-((1r,4r)-4-aminocyclohexyl)-6-methoxy-2-naphthamide] |

| IC50 | SMILES |
| --- | --- |
| > 100 µM | Cn1ncc2ccc(C(=O)N[C@H]3CC[C@H](N)CC3)cc21 [compound 275, N-((1r,4r)-4-aminocyclohexyl)-1-methyl-1H-indazole-6-carboxamide] |
| > 100 µM | O=C1CC2CN(C(=O)CC3CCNCC3)CCC2N1 (stereo not drawn) [compound 461, 5-(2-(piperidin-4-yl)acetyl)octahydro-2H-pyrrolo[3,2-c]pyridin-2-one] |
| > 100 µM | N[C@H]1CC[C@H](NC(=O)c2ccc(Cl)cc2C(F)(F)F)CC1 [compound 358, N-((1r,4r)-4-aminocyclohexyl)-4-chloro-2-(trifluoromethyl)benzamide] |
| 37.2 µM | NCCC(=O)N[C@H]1CC[C@H](NC(=O)c2ccc3cc[nH]c3c2)CC1 [compound 272, N-((1r,4r)-4-(3-aminopropanamido)cyclohexyl)-1H-indole-6-carboxamide] |
| > 100 µM | NCCC(=O)N[C@H]1CC[C@H](NC(=O)Cc2cccnc2)CC1 [compound 363, 3-amino-N-((1r,4r)-4-(2-(pyridin-3-yl)acetamido)cyclohexyl)propanamide] |
| > 100 µM | CC(NC(=O)c1cc2ccccc2n1C)C1CCN(C(=O)[C@H](C)N)CC1 (stereo partly drawn) [compound 244, N-(1-(1-(L-alanyl)piperidin-4-yl)ethyl)-1-methyl-1H-indole-2-carboxamide] |
| > 100 µM | CC(NC(=O)c1ccc(-c2ccccc2)cc1)C1CCN(C(=O)[C@H](C)N)CC1 (stereo partly drawn) [compound 189, N-(1-(1-(L-alanyl)piperidin-4-yl)ethyl)-[1,1′-biphenyl]-4-carboxamide] |
| 31.6 µM | Cc1nc2ccccc2c(C(=O)NC(C)C2CCN(C(=O)[C@H](C)N)CC2)c1N (stereo partly drawn) [compound 489, N-(1-(1-(L-alanyl)piperidin-4-yl)ethyl)-3-amino-2-methylquinoline-4-carboxamide] |
| 37 µM | CC1=NN(c2ccc(C(=O)N[C@H]3CC[C@H](NC(=O)CCN)CC3)cc2)C(=O)C1 [compound 432, N-((1r,4r)-4-(3-aminopropanamido)cyclohexyl)-4-(3-methyl-5-oxo-4,5-dihydro-1H-pyrazol-1-yl)benzamide] |
| > 100 µM | NCCC(=O)N[C@H]1CC[C@H](NC(=O)c2cccc3c2CC(=O)N3)CC1 [compound 430, N-((1r,4r)-4-(3-aminopropanamido)cyclohexyl)-2-oxoindoline-4-carboxamide] |
| > 100 µM | CC(NC(=O)c1ccc2[nH]ccc2c1)C1CCN(C(=O)[C@H](C)N)CC1 (stereo partly drawn) [compound 283, N-(1-(1-(L-alanyl)piperidin-4-yl)ethyl)-1H-indole-5-carboxamide] |
| > 100 µM | Cc1cc(C)c(C(=O)N[C@H]2CC[C@H](N)CC2)c(=O)[nH]1 [compound 324, N-((1r,4r)-4-aminocyclohexyl)-4,6-dimethyl-2-oxo-1,2-dihydropyridine-3-carboxamide] |
| > 100 µM | CC(NC(=O)c1cnc2ccccc2n1)C1CCN(C(=O)[C@H](C)N)CC1 (stereo partly drawn) [compound 238, N-(1-(1-(L-alanyl)piperidin-4-yl)ethyl)quinoxaline-2-carboxamide] |
| > 100 µM | CC(NC(=O)C1C[C@@H]2C=C[C@H]1C2)C1CCN(C(=O)[C@H](C)N)CC1 (stereo partly drawn) [compound 338, (1r,4r)-N-(1-(1-(L-alanyl)piperidin-4-yl)ethyl)bicyclo[2.2.1]hept-5-ene-2-carboxamide] |
| > 100 µM | CC(NC(=O)c1ccc2nonc2c1)C1CCN(C(=O)[C@H](C)N)CC1 (stereo partly drawn) [compound 237, N-(1-(1-(L-alanyl)piperidin-4-yl)ethyl)benzo[c][1,2,5]oxadiazole-5-carboxamide] |

| SMILES | IC50 |
| --- | --- |
| NCCC(=O)N[C@H]1CC[C@H](NC(=O)c2cc[n+]([O-])cc2)CC1 [compound 264, 4-(((1r,4r)-4-(3-aminopropanamido)cyclohexyl)carbamoyl)pyridine 1-oxide] | > 100 µM |

Same assay, conditions: read-out: SMYD3 Biochem IC50 (μM)*

| IC50 | SMILES |
| --- | --- |
| 50 µM | CC(NC(=O)c1ccc2c(c1)NC(=O)CC2)C1CCN(C(=O)[C@H](C)N)CC1 (stereo partly drawn) [compound 92, N-(1-(1-(L-alanyl)piperidin-4-yl)ethyl)-2-oxo-1,2,3,4-tetrahydroquinoline-7-carboxamide] |
| > 100 µM | CC(NC(=O)Cc1c[nH]c2ccccc12)C1CCN(C(=O)[C@H](C)N)CC1 (stereo partly drawn) [compound 167, N-(1-(1-(L-alanyl)piperidin-4-yl)ethyl)-2-(1H-indol-3-yl)acetamide] |
| > 100 µM | CC(NC(=O)c1cccc(S(C)(=O)=O)c1)C1CCN(C(=O)[C@H](C)N)CC1 (stereo partly drawn) [compound 149, N-(1-(1-(L-alanyl)piperidin-4-yl)ethyl)-3-(methylsulfonyl)benzamide] |
| > 100 µM | CC(NC(=O)c1cncc(F)c1)C1CCN(C(=O)[C@H](C)N)CC1 (stereo partly drawn) [compound 157, N-(1-(1-(L-alanyl)piperidin-4-yl)ethyl)-5-fluoronicotinamide] |
| 6.76 µM | CC(NC(=O)c1ccc2[nH]c(=O)[nH]c2c1)C1CCN(C(=O)[C@H](C)N)CC1 (stereo partly drawn) [Cpd. No. 93, N-(1-(1-((S)-2-aminopropanoyl)piperidin-4-yl)ethyl)-2-oxo-2,3-dihydro-1H-benzo[d]imidazole-5-carboxamide] |
| > 100 µM | Nc1nccnc1C(=O)N[C@H]1CC[C@H](N)CC1 [compound 153, 3-amino-N-((1r,4r)-4-aminocyclohexyl)pyrazine-2-carboxamide] |
| 91.3 µM | Cc1cc(C(=O)NC(c2ccccc2)C2CCNCC2)n(Cc2ccccc2)n1 (stereo not drawn) [compound 32, 1-benzyl-3-methyl-N-(phenyl(piperidin-4-yl)methyl)-1H-pyrazole-5-carboxamide] |
| 0.86 µM | N[C@@H](Cc1ccc(O)cc1)C(=O)N1CCC(NC(=O)c2ccc3c(c2)CC(=O)N3)CC1 [compound 49, N-(1-(L-tyrosyl)piperidin-4-yl)-2-oxoindoline-5-carboxamide] |
| > 100 µM | N[C@H]1CC[C@H](NC(=O)c2cncc(F)c2)CC1 [compound 159, N-((1r,4r)-4-aminocyclohexyl)-5-fluoronicotinamide] |
| 112 µM | CCn1ccc(C(=O)N[C@H]2CC[C@H](N)CC2)n1 [compound 13, N-((1r,4r)-4-aminocyclohexyl)-1-ethyl-1H-pyrazole-3-carboxamide] |
| > 100 µM | N[C@H]1CC[C@H](NC(=O)c2n[nH]c3ccccc23)CC1 [compound 172, N-((1r,4r)-4-aminocyclohexyl)-1H-indazole-3-carboxamide] |
| 80.3 µM | CC(=O)Nc1cccc(C(=O)N[C@H]2CC[C@H](N)CC2)c1 [compound 24, 3-acetamido-N-((1r,4r)-4-aminocyclohexyl)benzamide] |
